Experimental data taken from publication PMC11945486, “TAS1R2/TAS1R3 Single-Nucleotide Polymorphisms Affect Sweet Taste Receptor Activation by Sweeteners: The SWEET Project” (Nutrients, 2025).
Like-named read-outs stand apart in the source and are kept apart here. No end group written: not given here.

Molecular target: T1, human TAS1R2-WT/TAS1R3-A5T (Homo sapiens, UniProt Q7RTX0+Q8TE23, A5T)
T1 construct: expressed in transfected cells; host or cells: HEK293T stably expressing Gα16gust44
T1 sequence (Q8TE23 20-839): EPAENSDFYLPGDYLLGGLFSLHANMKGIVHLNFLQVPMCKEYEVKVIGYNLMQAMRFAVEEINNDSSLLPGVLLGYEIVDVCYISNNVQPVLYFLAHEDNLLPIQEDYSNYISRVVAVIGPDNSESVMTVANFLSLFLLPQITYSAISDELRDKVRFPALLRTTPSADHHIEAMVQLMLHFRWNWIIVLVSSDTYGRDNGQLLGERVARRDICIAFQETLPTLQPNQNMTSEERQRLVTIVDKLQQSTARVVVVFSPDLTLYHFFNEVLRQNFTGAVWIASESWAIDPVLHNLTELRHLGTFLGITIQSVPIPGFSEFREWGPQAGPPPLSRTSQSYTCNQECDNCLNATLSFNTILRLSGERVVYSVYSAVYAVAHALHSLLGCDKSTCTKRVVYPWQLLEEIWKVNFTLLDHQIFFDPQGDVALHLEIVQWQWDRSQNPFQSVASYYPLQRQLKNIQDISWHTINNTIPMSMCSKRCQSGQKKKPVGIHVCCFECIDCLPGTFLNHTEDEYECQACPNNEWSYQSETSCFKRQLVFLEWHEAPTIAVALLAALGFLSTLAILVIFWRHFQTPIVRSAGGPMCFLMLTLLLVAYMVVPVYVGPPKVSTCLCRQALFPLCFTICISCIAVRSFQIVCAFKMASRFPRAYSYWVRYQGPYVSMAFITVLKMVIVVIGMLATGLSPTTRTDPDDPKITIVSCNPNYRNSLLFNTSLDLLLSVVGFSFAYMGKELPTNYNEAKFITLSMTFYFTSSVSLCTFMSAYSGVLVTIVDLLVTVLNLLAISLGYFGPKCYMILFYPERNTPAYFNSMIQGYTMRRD
T1 sequence (Q7RTX0 21-852): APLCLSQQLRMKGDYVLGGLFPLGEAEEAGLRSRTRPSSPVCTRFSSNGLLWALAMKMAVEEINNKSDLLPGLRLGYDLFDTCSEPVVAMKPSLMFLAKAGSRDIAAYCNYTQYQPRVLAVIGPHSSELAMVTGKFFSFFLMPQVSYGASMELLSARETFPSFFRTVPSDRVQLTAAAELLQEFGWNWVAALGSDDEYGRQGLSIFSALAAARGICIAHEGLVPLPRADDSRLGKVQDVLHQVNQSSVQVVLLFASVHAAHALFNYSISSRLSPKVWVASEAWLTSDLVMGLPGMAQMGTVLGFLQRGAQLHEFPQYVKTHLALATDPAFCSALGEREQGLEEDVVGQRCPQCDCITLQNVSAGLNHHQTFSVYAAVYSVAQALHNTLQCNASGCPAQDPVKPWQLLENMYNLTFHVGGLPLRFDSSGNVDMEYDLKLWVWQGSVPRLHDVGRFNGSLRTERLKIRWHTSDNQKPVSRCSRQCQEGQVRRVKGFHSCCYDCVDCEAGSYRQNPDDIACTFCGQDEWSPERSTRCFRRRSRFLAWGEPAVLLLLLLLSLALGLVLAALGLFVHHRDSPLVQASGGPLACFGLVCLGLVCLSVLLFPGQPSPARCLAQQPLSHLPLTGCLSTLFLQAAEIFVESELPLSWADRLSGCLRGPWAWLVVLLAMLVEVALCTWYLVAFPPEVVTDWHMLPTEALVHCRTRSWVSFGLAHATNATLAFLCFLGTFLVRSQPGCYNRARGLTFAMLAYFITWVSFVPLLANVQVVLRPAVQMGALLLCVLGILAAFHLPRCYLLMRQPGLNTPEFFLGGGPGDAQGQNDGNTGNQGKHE
Test: Calcium mobilisation assay, TAS1R2-WT with TAS1R3 variant A5T
Assay type: cell-based
Conditions: for Max ΔF/F0: maximal signal amplitude
Description: The coding sequences for TAS1R2 and TAS1R3 were commercially synthesised, and the human codon was optimised for expression in human cells. The coding sequences of human TAS1R2 and TAS1R3 were subcloned and inserted into the mammalian expression vectors pcDNA6/myc-HisA and pcDNA4/myc-HisA (Invitrogen; Thermo Fisher Scientific; Illkirch, France) between the EcoRI and NotI restriction sites, generating the plasmids pcDNA6-TAS1R2 and pcDNA4-TAS1R3, respectively. To increase protein expression in mammalian cells, an upstream start codon was used, which was a sequence called MAX, corresponding to the QBI SP163 element also described in pcDNA4-HisMax (Invitrogen; Thermo Fisher Scientific; Illkirch, France). To measure the expression level of the receptor by immunohistochemistry, we used the FLAG sequence ([…]) in the C-terminal position, which encodes the FLAG tag epitope. SNP variants of TAS1R2 and TAS1R3 were constructed based on […], respectively, using site-directed mutagenesis (Genewiz; Leipzig, Germany).
The HEK293T cells were kindly provided by Jay P. Slack (Givaudan Flavors Corporation; Cincinnati, OH, USA). HEK293T cells stably transfected with Gα16gust44 [43, 67] were seeded in poly-D-lysine-coated clear-bottom black 96-well plates (0.35 × 10^5 cells/well) in high-glucose DMEM supplemented with 2 mM GlutaMAX, 10% dialysed foetal bovine serum with penicillin/streptomycin and G418 (400 μg/mL) at 37 °C and 6.3% CO2 in a humidified atmosphere as previously reported. […] As a negative control, HEK293T cells were mock-transfected with the empty expression vector. After a further 24 h of incubation, the HEK293T cells were washed with C1 buffer (130 mM NaCl, 5 mM KCl, 10 mM HEPES pH 7.4 and 2 mM CaCl2). The 96-well plates containing the cells were then stimulated with sweet-tasting compounds. […] Different concentration ranges were tested depending on the sweet compound injected. The Ca^2+ changes were expressed as fractional changes in fluorescent light intensity: ΔF/F = (F − F0)/F0, where F was the fluorescent light intensity at each point, and F0 was the value of emitted fluorescent light prior to stimulus application. To calculate dose–response relationships, the changes in fluorescence upon stimulus application were averaged, mock-subtracted and baseline-corrected. The dose–response data obtained were adjusted using a 4-parameter logistic equation. The half-maximal effective concentrations (EC50 values) and maximal signal amplitudes were calculated using SigmaPlot software (version 15.0) (Systat Software; San Jose, CA, USA).
For in vitro calcium mobilisation assay performed on hTAS1R2-SNPs, hTAS1R3-SNPs and mTAS1R3-I60T, 6 to 7 concentrations were tested for each sweet compound, plus buffer alone. All concentration–receptor combinations were measured in duplicate, and each experiment was repeated at least 4 times (8 wells/concentration). Results were expressed for each concentration as ΔF/F mean ± SEM and represented as dose–response curves.

Row | Compound | R1 = Variant EC50/WT EC50 | Max ΔF/F0 | EC50 (read-out: EC50) [µM] | EC50 (brazzein) [µg/mL]
1 | OC[C@H]1O[C@H](O[C@]2(CCl)O[C@H](CCl)[C@@H](O)[C@@H]2O)[C@H](O)[C@@H](O)[C@H]1Cl [Sucralose] | 1.2 | 0.63 ± 0.01 | 135 ± 5 | –
2 | O=S(=O)(O)NC1CCCCC1 [Cyclamate, cyclamate] | – | – | 1790 ± 35 | –
3 | C=C(C)[C@@H]1CC=C(/C=N/O)CC1 [Perillartine, perillartine] | 1.0 | 1.42 ± 0.23 | 13.2 ± 6.4 | –
4 | C=C1C[C@@]23CC[C@H]4[C@@](C)(CCC[C@@]4(C)C(=O)O[C@@H]4O[C@H](CO)[C@@H](O)[C@H](O[C@@H]5O[C@H](CO)[C@@H](O)[C@H](O)[C@H]5O)[C@H]4O[C@@H]4O[C@H](CO)[C@@H](O)[C@H](O)[C@H]4O)[C@@H]2CC[C@]1(O[C@@H]1O[C@H](CO)[C@@H](O)[C@H](O[C@@H]2O[C@H](CO)[C@@H](O)[C@H](O)[C@H]2O)[C@H]1O[C@@H]1O[C@H](CO)[C@@H](O)[C@H](O)[C@H]1O)C3 [Rebaudioside M, rebaudioside M] | 0.7 | 1.06 ± 0.02 | 30.2 ± 1.5 | –
5 | COc1ccc(CCC(=O)c2c(O)cc(O[C@@H]3O[C@H](CO)[C@@H](O)[C@H](O)[C@H]3O[C@@H]3O[C@@H](C)[C@H](O)[C@@H](O)[C@H]3O)cc2O)cc1O [NHDC, neohesperidin dihydrochalcone] | 1.5 | 1.24 ± 0.01 | 76.5 ± 13.1 | –
6 | thaumatin | 0.9 | 0.73 ± 0.04 | 9.7 ± 0.8 | –
7 | CC1=CC(=O)NS(=O)(=O)O1 [Acesulfame K, acesulfame K] | 1.4 | 0.31 ± 0.01 | 852 ± 34 | –
8 | brazzein (QDKCKKVYENYPVSKCQLANQCNYDCKLDKHARSGECFYDEKRNLQCICDYCEY; ends and bridges not checked; cysteine pairing not given here; UniProt P56552 1-54, looked up) [sweet-tasting protein obtained by recombinant production using the yeast Pichia pastoris] | 1.0 | 1.04 ± 0.04 | – | 108.3 ± 11.5
9 | C[C@H](CC[C@@H](O[C@@H]1O[C@H](CO[C@@H]2O[C@H](CO)[C@@H](O)[C@H](O)[C@H]2O)[C@@H](O)[C@H](O)[C@H]1O[C@@H]1O[C@H](CO)[C@@H](O)[C@H](O)[C@H]1O)C(C)(C)O)[C@H]1CC[C@@]2(C)[C@@H]3CC=C4[C@@H](CC[C@H](O[C@@H]5O[C@H](CO[C@@H]6O[C@H](CO)[C@@H](O)[C@H](O)[C@H]6O)[C@@H](O)[C@H](O)[C@H]5O)C4(C)C)[C@]3(C)[C@H](O)C[C@]12C [Mogroside V, mogroside V] | 1.0 | 0.97 ± 0.01 | 31.3 ± 1 | –
10 | COC(=O)[C@H](Cc1ccccc1)NC(=O)[C@H](CC(=O)O)NCCC(C)(C)C [Neotame] | 1.0 | 0.65 ± 0.01 | 1.18 ± 0.05 | –
